Entries after “also recorded” stand apart in the source; their conditions may differ. Where a name gives a salt, the structure may show the parent alone.
Tests used:
Format in all cases: physicochemical
[1] = Thermogravimetric analysis (TGA), weight loss
Experimental: Differential scanning calorimetry (DSC) is a thermoanalytical technique where the difference in the amount of heat required to increase the temperature of a sample and reference is measured as a function of temperature. Using this technique, phase transitions of a sample can be measured such as melting point. Decomposition can also be observed by DSC as can dehydration events. In the context of DSC measurements, there is also variability and the term “about” means ±1° C., and such variability is to be understood whether a DSC measurement is prefaced by “about” or not unless specified otherwise. Exemplary methods for collecting DSC data are set forth in Example 21. Thermogravimetric analysis, sometimes referred to as, thermal gravimetric analysis (TGA) is a thermal method of thermal analysis where the mass of a sample is measured as a function of time as the sample temperature changes. For example, when samples disclosed herein are heated and a loss in mass is measured prior to decomposition, this is likely indicative of the loss of water from the sample and may indicate that the sample being heated is a hydrate. Exemplary methods for collecting TGA are set forth in Example 23.
TG analysis was performed using a Mettler-Toledo TGA/DSC3 analyzer. Temperature and enthalpy adjustments were performed using indium, tin, and zinc, and then verified with indium. The balance was verified with calcium oxalate. The sample was placed in an open aluminum pan. The pan was hermetically sealed, the lid pierced, then inserted into the TG furnace. A weighed aluminum pan configured as the sample pan was placed on the reference platform. The furnace was heated under nitrogen. Each sample was heated from ambient temperature to 350° C. at 10° C./min. Although thermograms are plotted by reference temperature (x-axis), results are reported according to sample temperatures.

[2] = Angle of repose of 25HC3S salts; conditions: for Flow Property per USP<1174> Powder Flow: classification by angle of repose
Experimental: Angle of repose is measured as follows. Powder is poured from a funnel onto a flat surface until a cone of powder is created. The angle of repose is calculated according to the following equation: […]
Table C1, from USP<1174> Powder Flow, describes the powder flow properties correlating to the angles of repose.
The lower the angle of repose, the more flowable is a material. Powder with an angle of repose between 25° to 30° will show excellent flow through a hopper, feed frame, die table and die bore smoothly. From 41° to greater than 66°, you may experience powder flow difficulties like rat-holing or bridging within the hopper.
The angle of repose was determined by pouring approximately 2 grams of a 25HC3S salt through a 7 mm inner diameter plastic tube into the center of a 21.14 mm diameter rubber O-ring, resulting in the formation of a powder cone of fixed diameter. The height of the cone was estimated with calipers.

[3] = Solid-state chemical stability of 25HC3S salts at 2-8° C., 60° C. and 80° C. (HPLC assay and degradation products); conditions: for % Impurities, Total / % Impurities, 25-HC: ND = Not Detected; for % Impurities, 25-HC: 25-Hydroxy-Cholesterol; for % Recovery: vs 2-8° C.; for Stability after 1 week at 60° C. (in words) / Stability after 3 weeks at 80° C. (in words): solid state; for Stability after 1 week at 60° C. (in words): 1 week (after 3 weeks at 2-8° C.)
Experimental: Approximately 25 mg of each crystalline 25HC3S salt was added to 20 mL glass vials and each powder weight was recorded. Four vials were prepared for each salt and stored at 2-8° C. or 80° C. according to Table B2. The samples were scheduled initially to pull for testing at 3 weeks and 6 weeks' time points.
For those […] salts, the remaining vials stored at 2-8° C. for 3 weeks were allocated for storage at 60° C. for 1 week. Additional stability data was generated according to Table B3.
Based on the molecular weights, and expected UV response factors of each salt used in this study, the expected analytical sample concentrations were within the range of the 25HC3S sodium reference standards (0.75 mg/mL to 1.25 mg/mL as 25HC3S sodium salt). However, due to the lower-than-expected purity of the 25HC3S benzathine salt, an additional standard was prepared at 0.125 mg/mL as 25HC3S sodium salt.
Samples were prepared by pipetting 20 mL of 100% methanol into each vial and mixing well, with sonication and vortexing to fully dissolve the samples for HPLC analysis.
Samples were prepared by pipetting 20 mL of 100% methanol into each vial followed by two rounds of sonication for 30 minutes, with 30 seconds of vortexing before and after each round. Sample aliquots were then centrifuged at 10,000 RPM for 10 minutes and the supernatant collected for HPLC analysis.
Samples were prepared by pipetting 20 mL of 100% methanol into each vial, followed by 5 seconds of vortexing. The undissolved powder in methanol was quantitatively transferred into 200 mL volumetric flasks. The sample vials were rinsed 3 times with methanol, with each rinsate transferred to the 200 mL volumetric flasks. The volumetric flasks were filled to about 90% volume and sonicated for 10 minutes to fully dissolve the powder. The flasks were filled to volume with methanol, mixed well and aliquots collected for HPLC analysis.
HPLC analysis was performed.

[4] = Overall rank order of powder flowability (angle of repose and Hausner ratio); conditions: for Powder flowability, overall (in words): angle of repose and compressibility index/Hausner ratio combined; for Angle of Repose Rank Order / Hausner Ratio Rank Order / Overall Rank Order (Total Score): lower is better flow; for Overall Rank Order (Total Score): sum of both ranks
Text: Table C5 was generated by adding the relative rank order of the 25HC3S salts for angle of repose and Hausner ratio results, and creating an Over All Rank Order of the salts powder flowability. The salts with the lower overall rank order score had better powder flowability.

[5] = listed as 25HC3S hydroxyethylammonium
[6] = 2-8° C., 3 wk, listed as 25HC3S hydroxyethylammonium
[7] = 60° C., 1 wk, listed as 25HC3S hydroxyethylammonium
[8] = listed as 25HC3S hydroxyethylpyrrolidinium
[9] = 2-8° C., 3 wk, listed as 25HC3S hydroxyethylpyrrolidinium
[10] = 60° C., 1 wk, listed as 25HC3S hydroxyethylpyrrolidinium
[11] = 80° C., 3 wk, listed as 25HC3S hydroxyethylpyrrolidinium
[12] = 2-8° C., 3 wk, listed as 25HC3S calcium

SMILES: CC(CCCC(C)(C)O)C1CCC2C3CC=C4CC(OS(=O)(=O)O)CCC4(C)C3CCC12C (stereo not shown) [Salt #5]
- Weight loss by TGA, ambient to 134° C. ([1]; ambient to 134° C.): about 2.7%
- Angle of Repose [2, 5]: 24.8 degrees
- Angle of Repose, Rounded Whole Number [2, 5]: 25 degrees
- Assay ([3]; 2-8° C., 3 wk, 30240 min, listed as 25HC3S hydroxyethylammonium): 91.9 % w/w
- % Impurities, Total [3, 6]: 3.1%
- Overall physical and chemical stability (in words) ([3]; 2-8° C., 60° C., 80° C.): least stable organic salt; also recorded: least physically and chemically stable
- % Impurities, 25-HC [3, 6]: 1.2%
- % Impurities, 25-HC [3, 7]: 11.3%
- Physical and chemical solid-state stability (comments) ([3]; 60° C., 1 week, listed as 25HC3S Hydroxyethylammonium): Totally decomposed after 1 week at 60 °C and after 3 weeks at 80 °C
- Assay ([3]; 60° C., 1 wk (after 3 weeks at 2-8° C.), 10080 min, listed as 25HC3S hydroxyethylammonium, 10080 min): 0.0 % w/w
- % Recovery of 2-8° C./3 wk vs 60° C./1 wk ([3]; 60° C., 1 wk, 10080 min, listed as 25HC3S hydroxyethylammonium): 0.0%
- % Impurities, Total [3, 7]: 99.7%
- Physical and chemical solid-state stability (comments) ([3]; 80° C., 3 weeks, listed as 25HC3S Hydroxyethylammonium): Totally decomposed after 1 week at 60 °C and after 3 weeks at 80 °C
- % Recovery ([3]; 80° C., 3 wk, 30240 min, listed as 25HC3S hydroxyethylammonium, 30240 min): 0.0%
- Assay ([3]; 80° C., 3 wk, 30240 min, listed as 25HC3S hydroxyethylammonium): 0.0 % w/w
- % Impurities, Total ([3]; 80° C., 3 wk, listed as 25HC3S hydroxyethylammonium): 100.1%
- Stability after 1 week at 60° C. (in words) ([3]; 60° C.): totally decomposed
- Stability after 3 weeks at 80° C. (in words) ([3]; 80° C., 3 weeks): totally decomposed
- Powder flowability, overall (in words) ([4]; listed as crystalline 25HC3S hydroxyethylammonium): relatively good flowability
- Powder flowability, overall (in words) ([4]; listed as hydroxyethylammonium): top three
- Angle of Repose Rank Order [4, 5]: 1
- Hausner Ratio Rank Order [4, 5]: 1
- Overall Rank Order (Total Score) [4, 5]: 2

SMILES: CC(CCCC(C)(C)O)C1CCC2C3CC=C4CC(OS(=O)(=O)O)CCC4(C)C3CCC12C (stereo not shown) [Salt #6]
- Weight loss by TGA up to 181° C. ([1]; up to 181° C.): about 0.1%
- Flow Property per USP<1174> Powder Flow [2, 8]: Poor - must agitate,
- Angle of Repose [2, 8]: 53.8 degrees
- Angle of Repose, Rounded Whole Number [2, 8]: 54 degrees
- Assay ([3]; 2-8° C., 3 wk, 30240 min, listed as 25HC3S hydroxyethylpyrrolidinium): 100.5 % w/w
- % Impurities, Total [3, 9]: 2.0%
- % Impurities, 25-HC [3, 9]: 0.3%
- % Impurities, 25-HC [3, 10]: 0.4%
- % Impurities, 25-HC [3, 11]: 0.3%
- Physical and chemical solid-state stability (comments) ([3]; 60° C., 1 week, listed as 25HC3S Hydroxyethylpyrrolidinium): Stable after 1 week at 60 °C
- Assay ([3]; 60° C., 1 wk (after 3 weeks at 2-8° C.), 10080 min, listed as 25HC3S hydroxyethylpyrrolidinium, 10080 min): 104.9 % w/w
- % Recovery of 2-8° C./3 wk vs 60° C./1 wk ([3]; 60° C., 1 wk, 10080 min, listed as 25HC3S hydroxyethylpyrrolidinium): 104.4%
- % Impurities, Total [3, 10]: 1.8%
- Physical and chemical solid-state stability (comments) ([3]; 80° C., 3 weeks, listed as 25HC3S Hydroxyethylpyrrolidinium): totally decomposed after 3
- % Recovery ([3]; 80° C., 3 wk, 30240 min, listed as 25HC3S hydroxyethylpyrrolidinium, 30240 min): 0.0%
- Assay ([3]; 80° C., 3 wk, 30240 min, listed as 25HC3S hydroxyethylpyrrolidinium): 0.0 % w/w
- % Impurities, Total [3, 11]: 99.9%
- Stability after 1 week at 60° C. (in words) ([3]; 60° C.): stable
- Stability after 3 weeks at 80° C. (in words) ([3]; 80° C., 3 weeks): totally decomposed
- Powder flowability, overall (in words) ([4]; listed as hydroxyethylpyrrolidinium): poorer flowability
- Angle of Repose Rank Order [4, 8]: 15
- Hausner Ratio Rank Order [4, 8]: 10
- Overall Rank Order (Total Score) [4, 8]: 25

SMILES: CC(CCCC(C)(C)O)C1CCC2C3CC=C4CC(OS(=O)(=O)O)CCC4(C)C3CCC12C (stereo not shown) [Salt #2]
- Weight loss by TGA, about 112° C. to about 130° C. ([1]; about 112° C. to about 130° C.): 3.1%
- Weight loss by TGA, room temperature to about 93° C. ([1]; room temperature to about 93° C.): about 0.9%
- Flow Property per USP<1174> Powder Flow ([2]; listed as 25HC3S calcium): Passable - may hang up
- Angle of Repose ([2]; listed as 25HC3S calcium): 42.6 degrees
- Angle of Repose, Rounded Whole Number ([2]; listed as 25HC3S calcium): 43 degrees
- Assay ([3]; 2-8° C., 3 wk, 30240 min, listed as 25HC3S calcium): 92.9 % w/w
- % Impurities, Total [3, 12]: 1.6%
- Overall physical and chemical stability (in words) ([3]; 2-8° C., 60° C., 80° C.): least physically and chemically stable
- Overall physical and chemical stability (in words) ([3]; 2-8° C., 60° C., 80° C., listed as 25HC35S calcium): least stable
- % Impurities, 25-HC [3, 12]: 0.2%
- Physical and chemical solid-state stability (comments) ([3]; 60° C., 1 week, listed as 25HC3S Calcium): Totally decomposed after 1 week at 60 °C
- Assay ([3]; 60° C., 1 wk (after 3 weeks at 2-8° C.), 10080 min, listed as 25HC3S calcium, 10080 min): 0.0 % w/w
- % Recovery of 2-8° C./3 wk vs 60° C./1 wk ([3]; 60° C., 1 wk, 10080 min, listed as 25HC3S calcium): 0.0%
- Physical and chemical solid-state stability (comments) ([3]; 80° C., 3 weeks, listed as 25HC3S Calcium): Totally decomposed after 1 week at 60 °C and after 3 weeks at 80 °C
- % Recovery ([3]; 80° C., 3 wk, 30240 min, listed as 25HC3S calcium, 30240 min): 0.0%
- Assay ([3]; 80° C., 3 wk, 30240 min, listed as 25HC3S calcium): 0.0 % w/w
- % Impurities, Total ([3]; 80° C., 3 wk, listed as 25HC3S calcium): 100%
- degradants dissolved in the diluent (comments) ([3]; after 1 week at 60° C. and 3 weeks at 80° C.): degradants were dissolved in the diluent.extract
- Stability after 1 week at 60° C. (in words) ([3]; 60° C.): totally decomposed
- Stability after 3 weeks at 80° C. (in words) ([3]; 80° C., 3 weeks): totally decomposed
- Powder flowability, overall (in words) ([4]; listed as calcium): poorer flowability
- Angle of Repose Rank Order ([4]; listed as 25HC3S calcium): 11
- Hausner Ratio Rank Order ([4]; listed as 25HC3S calcium): 11
- Overall Rank Order (Total Score) ([4]; listed as 25HC3S calcium): 22

— patent US20260317367A1, “SALTS INCLUDING CRYSTALLINE SALTS OF 25-HYDROXY-CHOLEST-5-EN-3-SULFATE AND METHODS FOR PREPARING SAME” (Durect Corporation, priority 2022, published 2026)
